Results published in article PMC11995724, “Antibiotic target discovery by integrated phenotypic and activity-based profiling of electrophilic fragments” (Cell chemical biology, 2025).

Test: in vitro
Conditions: human, hek293t cells
Experimental: Mammalian cytotoxicity measurement was performed using Cell Titer-Glo 2.0 Cell Viability Assay (Promega, G9243) according to the manufacturer protocol. In brief, mammalian cells were seeded into 384-well white plates (Greiner, 781080) and incubated at 37°C for one day. Compounds from the Cys-Library were dispensed into the assay plate using epMotion 96. The plates were then incubated at 37°C for two days. An equal volume of Cell Titer-Glo 2.0 reagent was added into each well of the assay plate using epMotion 96 and incubated at 22°C for 10 min, followed by luminescence measurement using a Cytation 5 plate reader (BioTek).

Compound | viability at 48 h, 25 µM [%]
CN(CC(=O)Nc1ccccc1Cl)C(=O)CCl [4-D05, 2-chloro-N-{[(2-chlorophenyl)carbamoyl]methyl}-N-methylacetamide] | 0.034
Cc1ccc(Sc2ccc(NC(=O)CCl)cc2)cc1C [4-G03, 2-chloro-N-{4-[(3,4-dimethylphenyl)sulfanyl]phenyl}acetamide] | -0.101
Cc1ccc(C(=O)c2ccccc2NC(=O)CCl)cc1 [4-N17, 2-chloro-N-[2-(4-methylbenzoyl)phenyl]acetamide] | 2.4
C=CC(=O)N[C@H]1CCCC[C@H]1n1cc(C(C)(C)O)nn1 [1-P07, N-[(1S,2R)-2-[4-(2-hydroxypropan-2-yl)-1H-1,2,3-triazol-1-yl]cyclohexyl]prop-2-enamide] | 128
CC(Cl)C(=O)NC1CCCCCC1 (stereo not shown) [5-O21, 2-chloro-N-cycloheptylpropanamide] | 105
CC(C)CC(=O)Nc1ccc(C(=O)CCl)cc1 [10-N06, N-[4-(2-chloroacetyl)phenyl]-3-methylbutanamide] | 11.7
O=C(CCl)C1CC12CCCCC2 (stereo not shown) [10-A19, 2-chloro-1-{spiro[2.5]octan-1-yl}ethan-1-one] | 86.3
C=CC(=O)Nc1nc(-c2cccs2)cs1 [1-D08, N-[4-(thiophen-2-yl)-1,3-thiazol-2-yl]prop-2-enamide] | 1.21
C=CC(=O)NC(c1ccccc1)c1nc(C)no1 (stereo not shown) [1-B13, N-[(3-methyl-1,2,4-oxadiazol-5-yl)(phenyl)methyl]prop-2-enamide] | 109
COc1ccc(C2=NN(C(=O)CCl)C(c3ccc(F)cc3)C2)cc1 (stereo not shown) [4-M20, 2-chloro-1-[5-(4-fluorophenyl)-3-(4-methoxyphenyl)-4,5-dihydro-1H-pyrazol-1-yl]ethan-1-one] | 0.00411
COc1cccc(N2C(=O)C=CC2=O)c1 [10-K03, 1-(3-methoxyphenyl)-2,5-dihydro-1H-pyrrole-2,5-dione] | 18.5
C=CC(=O)N1CC(n2nc(C)cc2C)C1 [3-B04, 1-[3-(3,5-dimethyl-1H-pyrazol-1-yl)azetidin-1-yl]prop-2-en-1-one] | 77.4
CC(=O)NCc1ccc(C(=O)C(C)Cl)s1 (stereo not shown) [10-M04, N-{[5-(2-chloropropanoyl)thiophen-2-yl]methyl}acetamide] | 93.5
CC(=O)Nc1ccc(C2=NN(C(=O)CCl)C(c3ccco3)C2)cc1 (stereo not shown) [4-G22, N-{4-[1-(2-chloroacetyl)-5-(furan-2-yl)-4,5-dihydro-1H-pyrazol-3-yl]phenyl}acetamide] | 0.156
COc1ccc(C(NC(=O)CCl)C(C)C)cc1 (stereo not shown) [4-A13, 2-chloro-N-[1-(4-methoxyphenyl)-2-methylpropyl]acetamide] | 11.2
CCOc1cc(C=C(C#N)C(=O)NC(C)C)cc(Cl)c1O [9-I13, 3-(3-chloro-5-ethoxy-4-hydroxyphenyl)-2-cyano-N-(propan-2-yl)prop-2-enamide] | 87.3
CC(NC(=O)C(C#N)=Cc1ccccc1)C12CC3CC(CC(C3)C1)C2 (stereo not shown) [8-N20, N-[1-(adamantan-1-yl)ethyl]-2-cyano-3-phenylprop-2-enamide] | 13.9
C=CC(=O)N1CCCn2cccc2C12CCOCC2 [1-A22, 1-{2',3',4',5'-tetrahydrospiro[oxane-4,1'-pyrrolo[1,2-a][1,4]diazepin]-2'-yl}prop-2-en-1-one] | 109
N#CC(=Cc1ccc(O)cc1)C(=O)NCc1ccc(Cl)cc1 [8-B16, N-[(4-chlorophenyl)methyl]-2-cyano-3-(4-hydroxyphenyl)prop-2-enamide] | 102
O=C(CCl)NCc1ccc(N2CCOCC2)nc1 [6-E22, 2-chloro-N-{[6-(morpholin-4-yl)pyridin-3-yl]methyl}acetamide] | 8.26
O=C(CCl)NCC1(c2ccc(F)cc2)CCCC1 [6-E18, 2-chloro-N-{[1-(4-fluorophenyl)cyclopentyl]methyl}acetamide] | 5.22
CC(C)Oc1ccccc1C=C(C#N)C(=O)Nc1ccccc1Cl [9-N20, N-(2-chlorophenyl)-2-cyano-3-[2-(propan-2-yloxy)phenyl]prop-2-enamide] | 104
C=CC(=O)NCC1(n2ccnn2)CC1 [2-L19, N-{[1-(1H-1,2,3-triazol-1-yl)cyclopropyl]methyl}prop-2-enamide] | 45.7
Cc1ccc([N+](=O)[O-])cc1N1C(=O)C=CC1=O [10-O14, 1-(2-methyl-5-nitrophenyl)-2,5-dihydro-1H-pyrrole-2,5-dione] | 67.2
C=CC(=O)NCc1ccccc1S(=O)(=O)N1CCCC1 [2-L17, N-{[2-(pyrrolidine-1-sulfonyl)phenyl]methyl}prop-2-enamide] | 68.6
CNC(=O)C(NC(=O)CCl)c1ccccc1 (stereo not shown) [6-M06, 2-(2-chloroacetamido)-N-methyl-2-phenylacetamide] | 0.807

Compound | viability at 48 h, 25 µM [%]
CC(=Cc1ccccc1)C=C(C#N)C(=O)Nc1ccc2c(c1)OCCO2 [9-J07, 2-cyano-N-(2,3-dihydro-1,4-benzodioxin-6-yl)-4-methyl-5-phenylpenta-2,4-dienamide] | 79.5
N#CC(=Cc1ccco1)C(=O)Nc1ccc2nc(S)oc2c1 [9-E16, 2-cyano-3-(furan-2-yl)-N-(2-sulfanyl-1,3-benzoxazol-6-yl)prop-2-enamide] | 110
Cc1csc(Cl)c1NC(=O)CCl [6-A06, 2-chloro-N-(2-chloro-4-methylthiophen-3-yl)acetamide] | 0.632
C=CC(=O)NCc1nc(-c2ccccc2)oc1C [3-C05, N-[(5-methyl-2-phenyl-1,3-oxazol-4-yl)methyl]prop-2-enamide] | 50.4
C=CC(=O)N1CCC(C(=O)Nc2ccc(N)c([N+](=O)[O-])c2)CC1 [3-E20, N-(4-amino-3-nitrophenyl)-1-(prop-2-enoyl)piperidine-4-carboxamide] | 56.7
C=CC(=O)N(Cc1ccc(=O)n(C)c1)C1CCCc2ccccc21 (stereo not shown) [1-B17, N-[(1-methyl-6-oxo-1,6-dihydropyridin-3-yl)methyl]-N-(1,2,3,4-tetrahydronaphthalen-1-yl)prop-2-enamide] | 112
CCn1nc(C)c(CNC(=O)CCl)c1C [7-P10, 2-chloro-N-[(1-ethyl-3,5-dimethyl-1H-pyrazol-4-yl)methyl]acetamide] | 30
N#CC(=Cc1ccc(OC(F)F)cc1)C(=O)NC1CCCCC1 [9-A04, 2-cyano-N-cyclohexyl-3-[4-(difluoromethoxy)phenyl]prop-2-enamide] | 66.2
COc1ccc(N2C(=O)C=CC2=O)c(OC)c1 [10-J15, 1-(2,4-dimethoxyphenyl)-2,5-dihydro-1H-pyrrole-2,5-dione] | 109
Cc1cc(C(=O)CCl)c(C)n1Cc1cccs1 [10-D03, 2-chloro-1-{2,5-dimethyl-1-[(thiophen-2-yl)methyl]-1H-pyrrol-3-yl}ethan-1-one] | 104
C=CC(=O)N1CCOC(c2ccccc2)C1 (stereo not shown) [2-I07, 1-(2-phenylmorpholin-4-yl)prop-2-en-1-one] | 118
N#CC(=Cc1ccc2c(c1)OCCO2)C(=O)Nc1ccc(F)cc1 [9-K20, 2-cyano-3-(2,3-dihydro-1,4-benzodioxin-6-yl)-N-(4-fluorophenyl)prop-2-enamide] | 114
CN1CCN(C(=O)Cc2cccc(NC(=O)CCl)c2)CC1 [5-C22, 2-chloro-N-{3-[2-(4-methylpiperazin-1-yl)-2-oxoethyl]phenyl}acetamide] | 1.44
CC(Cl)C(=O)N(C)Cc1ncnn1CC(F)F (stereo not shown) [7-C10, 2-chloro-N-{[1-(2,2-difluoroethyl)-1H-1,2,4-triazol-5-yl]methyl}-N-methylpropanamide] | 97.8
O=C(CCl)Nc1ccc2c(c1)oc1ccccc12 [6-A13, 2-chloro-N-{8-oxatricyclo[7.4.0.0,2,7]trideca-1(9),2(7),3,5,10,12-hexaen-5-yl}acetamide] | -0.0548
CC(C)Oc1ccccc1C=C(C#N)C(=O)Nc1cccc(Cl)c1 [9-P20, N-(3-chlorophenyl)-2-cyano-3-[2-(propan-2-yloxy)phenyl]prop-2-enamide] | 107
O=C(CCl)NC1CCCOc2c(F)cccc21 (stereo not shown) [7-B14, 2-chloro-N-(9-fluoro-2,3,4,5-tetrahydro-1-benzoxepin-5-yl)acetamide] | 0.886
O=C(CCl)NCC1CC(=O)N(c2ccccc2)C1 (stereo not shown) [5-A09, 2-chloro-N-[(5-oxo-1-phenylpyrrolidin-3-yl)methyl]acetamide] | 0.822
C=CC(=O)N1CCC(C(=O)NCc2cnn(-c3ccccc3)c2)CC1 [3-O14, N-[(1-phenyl-1H-pyrazol-4-yl)methyl]-1-(prop-2-enoyl)piperidine-4-carboxamide] | 91.1
CC1CSc2ccc(Cl)cc2N(C(=O)CCl)C1 (stereo not shown) [5-J05, 2-chloro-1-(7-chloro-3-methyl-2,3,4,5-tetrahydro-1,5-benzothiazepin-5-yl)ethan-1-one] | 1.21
N#CC(=Cc1cc(C#N)cs1)C(=O)NC(N)=O [8-F04, {2-cyano-2-[(4-cyanothiophen-2-yl)methylidene]acetyl}urea] | 85.8
C=CC(=O)N1C2CCCC1CC1(C2)NC(=O)NC1=O (stereo not shown) [2-K06, 9-(prop-2-enoyl)-9-azaspiro[bicyclo[3.3.1]nonane-3,4'-imidazolidine]-2',5'-dione] | 89.2
C=CC(=O)N1CCC(C(=O)NCc2ccccc2-n2cccn2)CC1 [3-N03, 1-(prop-2-enoyl)-N-{[2-(1H-pyrazol-1-yl)phenyl]methyl}piperidine-4-carboxamide] | 68
N#CC(=Cc1ccc(Cl)cc1)C(=O)NCc1ccccc1 [9-G13, N-benzyl-3-(4-chlorophenyl)-2-cyanoprop-2-enamide] | 104
O=C(CCl)NC1CCN(C(=O)CCc2ccccc2)CC1 [6-N08, 2-chloro-N-[1-(3-phenylpropanoyl)piperidin-4-yl]acetamide] | 1.6
C=CC(=O)NCCN1C(=O)SC(=Cc2ccc(Cl)cc2)C1=O [2-C05, N-(2-{5-[(4-chlorophenyl)methylidene]-2,4-dioxo-1,3-thiazolidin-3-yl}ethyl)prop-2-enamide] | 87.2
